The nature of data set [1]: Maternal plasma drug concentration in mouse pregnancy model (HPLC-MSMS). Format: in vivo, C57BL/6J mice. Conditions: pregnant mice, mean (SD), n=2; for concentration at 24 h / Cmax at 1 h: female, C57BL/6J, mouse, plasma; for concentration at 24 h: oral, read-out: Plasma Concentration 24 h (Cmin). An excerpt:
All animal experiments were approved by the University Health Network Animal Use Committee (protocol #2575) and performed according to the policies and guidelines of the Canadian Council on Animal Care. C57BL/6J mice bred in-house (original breeders from Jackson Laboratory RRID:IMSR JAX:000664) were maintained under a 12-h light/dark cycle, with ad libitum access to food and water. Animals were acclimated to their surroundings for 1 week prior to experiment initiation. Males were isolated for 7 days prior to mating. Female mice (7–12 weeks of age) were mated with males at a ratio of 2:1. Presence of vaginal plug was denoted as gestational day 0.5 (GD0.5). Pregnancy was confirmed by weight gain of >1.5 g on GD9.5 and >3 g on GD13.5. […] The equivalent mouse mg/kg dose was calculated based on the human dose divided by an assumed average human weight of 60 kg. The dose of TDF/FTC was kept constant across the different dosages of BIC and CAB. On GD15.5, mice underwent saphenous bleed 24 h after the GD14.5 dose administration (trough). Immediately after the saphenous bleed, mice were dosed with the appropriate drug regimen and sacrificed 1 h post-treatment (peak), at which time blood was collected by cardiac puncture and amniotic fluid was collected by dissecting the uterus, puncturing the amniotic sac, and draining the amniotic fluid into a sterile dish. Amniotic fluid was pooled for the entire litter. Samples from 2 dams per arm were analyzed for drug levels.
BIC and CAB levels in plasma and amniotic fluid were determined using a validated, simultaneous assay using high-performance liquid chromatography coupled with tandem mass spectrometry (HPLC-MSMS). Briefly, 50 μL of plasma or amniotic fluid was spiked with internal standard (ritonavir-d6) followed by protein precipitation with acetonitrile and filtration. Filtrates were diluted 1:9 with ammonium acetate buffer (10 mM) and analyzed by the HPLC-MSMS system, consisting of a Shimadzu Nexera XR high-performance liquid chromatograph (Shimadzu, Columbia, MD, USA) coupled with a SCIEX API 4500 QqQ mass spectrometer (SCIEX, Concord, ON, Canada). Chromatographic separation by Mobile Phase A (10% methanol, 5% 50 mM ammonium acetate, 85% 0.25% acetic acid pH 3.6 ± 0.2) and Mobile Phase B (90% methanol, 5% 50 mM ammonium acetate, 5% 0.25% acetic acid pH 6.6 ± 0.2) was performed under linear gradient conditions (flow rate 0.7 mL/min) on a reverse-phase Zorbax XDB-C18 column (Agilent Technologies, Santa Clara, CA, USA) maintained at 40 °C. […] HPLC-MSMS data were acquired using Analyst (v 1.6.3, SCIEX, Concord, ON, Canada) and analyzed with MultiQuant software (v 3.0.3, SCIEX, Concord, ON, Canada). […] No peaks were detected in blank mouse plasma at the retention time with the specific ion settings for each compound. […] Positive controls spiked in-house and prepared by an external laboratory during a sample exchange program were included in all runs.

The next data set deals with pregnant rabbits. The conditions noted are these: CAB orally 0, 30, 500, or 2000 mg/kg/day, gestational day 7 to 19; cited from earlier work.
The subject of data set [2] is simian/human immunodeficiency virus (SHIV). Conditions: long-acting CAB; cited from earlier work.
For data set [3], the system named is pregnant rats. Conditions: gestational day 0 to 17, cited from earlier work.
The conditions of data set [4]: ex-vivo dually perfused human cotyledon; cited from earlier work.
Data set [5] has as its system pregnant rats. Conditions: cited from earlier work.
The mark [6] stands for this setting: CAB 0.5 mg/kg (1×) oral gavage once daily GD11.5-GD15.5 with TDF 50 mg/kg + FTC 33.3 mg/kg.
[7] abbreviates: CAB 1.5 mg/kg (3×) oral gavage once daily GD11.5-GD15.5 with TDF 50 mg/kg + FTC 33.3 mg/kg.
Where [8] appears, read: CAB 5 mg/kg (10×) oral gavage once daily GD11.5-GD15.5 with TDF 50 mg/kg + FTC 33.3 mg/kg.

Read-outs that look alike come from different tables or passages of the source.

By Cmax is commonly meant the highest concentration seen after dosing. For `C[C@H]1CO[C@@H]2Cn3cc(C(=O)NCc4ccc(F)cc4F)c(=O)c(O)c3C(=O)N12` [CAB, cabotegravir], in data set [1] (setting [6]), the concentration at 24 h turned out to be 260 ng/mL and the Cmax at 1 h worked out at 913 ng/mL. In addition, in data set [1] (setting [7]), the concentration at 24 h came to 480 ng/mL and the Cmax at 1 h stood at 1270 ng/mL. Also, in data set [1] (setting [8]), the concentration at 24 h was around 1300 ng/mL, the Cmax at 1 h came out at 3580 ng/mL and the “Plasma Concentration 24 h (Cmin)” value is 1306 (402) ng/mL. Also, the Fetal toxicities result in the data set on pregnant rabbits is reported as “no drug-related fetal toxicities”. Moreover, in data set [2], the “Efficacy against intrarectal SHIV” value was “protective efficacy” and the “Efficacy against repeated high-dose intravaginal SHIV” value is “protective efficacy”. The “Fetal viability and fetal malformations” value with pregnant rats [3] (CAB orally 0, 0.5, 5, or 1000 mg/kg/day) is “no effects on fetal viability and no drug-related fetal malformations”. For the same compound, in the data set on pregnant rats [3] (CAB orally 1000 mg/kg/day), the Fetal body weight result is recorded as “minor decrease in fetal body weight”. Besides, in data set [4], the “Concentration in the fetal compartment” value was 48 ng/mL, the “Concentration in the maternal compartment” value is 550 ng/mL, the Maternal-to-fetal ratio is 10% and the Placental transfer result is recorded as “low placental transfer”. Also, the Reproductive toxicity findings result in the data set with pregnant rats [5] (CAB orally 1000 mg/kg/day, gestational day 6 to lactation day 21) is “delayed onset of parturition, increased number of stillbirths, and increased number of neonatal deaths at lactation day 4”. Besides, in the data set with pregnant rats [5] (rats, 1000 mg/kg/day), the “CAB exposure relative to the recommended human dose” value was 28 times.

These data come from paper PMC9501129 (Pharmaceutics, 2022).
